Results reported in PMC9814779, “A triple farnesoid X receptor and peroxisome proliferator-activated receptor α/δ activator reverses hepatic fibrosis in diet-induced NASH in mice” (Communications Chemistry, 2020).

System: HEK293T and U2OS cells
Assay: Multiplex high-content live-cell toxicity assay
Assay type: cell-based
Conditions: seven concentrations between 100 nM and 100 µM; 2, 12 and 24 h
Method: Before proof-of-concept in vivo evaluation, we profiled stability and cytotoxicity of the triple modulator 41 in vitro. […] To determine cytotoxicity, we employed a multiplex high-content life-cell imaging screen[24] on HEK293T and U2OS cells. For this, the cells were treated with fluorescent probes to detect Annexin V as apoptosis marker (Annexin V Alexa488), dead cells (Yo-Pro3), and DNA/nucleus (Hoechst33342). Cells were then incubated with 41, OCA, or elafibranor at seven concentrations between 100 nM and 100 µM, and cell health was determined by fluorescence imaging after 2, 12, and 24 h (Fig. 6g–i and Supplementary Fig. 5).
Supplementary Methods for in Vitro Characterization
Cytotoxicity was assessed in a high content screen on two different cell lines, HEK293T (ATCC® CRL-1573™) and U2OS (ATCC®HTB-96™), essentially as described previously6. In brief, cells were cultured in DMEM plus L-Glutamine (high glucose) supplemented with 10 % FBS (Gibco) and Penicillin/Streptomycin (Gibco). […]
After 2 h, 12 h and 24 h, cellular shape and fluorescence was analyzed on an automated, high-content confocal microscope (CQ1, Yokogawa). […]
50 ms, 40%; bright field, 300ms, 100% transmission, one centered field per well, 7 z stacks per well with 55 µm spacing. Images were analyzed with the Pathfinder software (Yokogawa). Cells were detected and gated as previously described6. […]
The solubilized test compound (5 μL, final concentration 10 μM in phosphate buffer (0.1 M, pH 7.4)) was preincubated at 37 °C in 432 μL of phosphate buffer (0.1 M, pH 7.4) together with a 50 μL NADPH regenerating system (30 mM glucose-6-phosphate, 4 U/mL glucose-6-phosphate dehydrogenase, 10 mM NADP, 30 mM MgCl2). […] The supernatants were analyzed and test compound was quantified by HPLC: mobile phase: MeOH 83%/H2O 17%/formic acid 0.1%; flow-rate: 1 mL/min; stationary phase: MultoHigh Phenyl phase, 5 μm, 250×4, precolumn, phenyl, 5 μm, 20×4; detection wavelength: 330 and 254 nm; injection volume: 50 μL. […]

Compound	cytotoxicity (cell health, apoptosis, necrosis, lysis)
CC[C@H]1[C@@H](O)[C@@H]2[C@H](CC[C@]3(C)[C@@H]([C@H](C)CCC(=O)O)CC[C@@H]23)[C@@]2(C)CC[C@@H](O)C[C@@H]12 [OCA, 6α-ethylchenodeoxycholic acid, reference compound]	non-toxic up to 100 µM concentration over 24 h
CC(C)(C)c1ccc(C(=O)Nc2cccc(CCC(=O)O)c2)c(NC(=O)c2ccc(-c3ccco3)cc2)c1 [compound 41, 3-(3-[4-{tert-Butyl}-2-{4-(2-furyl)}benzamido]phenyl)propanoic acid]	no notable toxic effects up to high 100 µM concentration
